The values that follow come from publication PMC8795745, “A GSH/CB Dual-Controlled Self-Assembled Nanomedicine for High-Efficacy Doxorubicin-Resistant Breast Cancer Therapy” (Frontiers in Pharmacology, 2022).

Series [1] has as its target T1, CB enzyme (cathepsin B) (Homo sapiens, UniProt P07858).
T1 construct: purchased Sigma-Aldrich (St. Louis, MO, USA)
Put plainly: Cathepsin B conversion of linear-1a into linear-1b (LC-MS). The class given is biochemical. Conditions: after GSH 8 mM for 12 h, then CB 1 U/mL, 37 °C, PBS pH 7.4; at 20 h; LC-MS peak area; mean, n=3. On the procedure:
Molecular self-assembly was performed as described previously.^[1] Briefly, the cyclic-1a was diluted into the phosphate-buffered saline (PBS; pH 7.4) to a final concentration of 1600 µM and incubated at 37 °C. The GSH (8 mM) was then added to the above solution for 12 h at 37 °C to trigger the first step of self-assembly. Afterward, cathepsin B was added to the solution for 12 h at 37 °C to trigger the second step of self-assembly (1 U/mL).
2 mL of the sample prepared by part 3 were adding GSH (8 mM) for 12 h, and then added 1 U/mL of cathepsin B, 100 µL of each sample was collected at each time point and 100 µL methanol was added to terminate the reaction. The method of detection was similar to part 3.1.

A short description of series [2]: Body weight and histological examination of organs in tumor-bearing mice. The class given is in vivo, BALB/c nude mice. Conditions: cyclic-1a 20 and 60 mg/kg. On the procedure: Female BALB/c nude mice (6 weeks old) were purchased from the Experimental Animal Center of Yangzhou University. The experiments involving animals were approved by the Animal Ethics Committee of China Pharmaceutical University (Ethic approval number: 2020-07-003). In vivo anticancer activity assay was performed as described previously.^[9^] Briefly, MCF-7/DOX cells (200 μL, 1 × 10^7 cells) were implanted into the right mammary fat pad of nude mice. Once tumors grew to 80-100 mm^3, mice were randomly assigned into four groups and treated intraperitoneally with vehicle, cyclic-1a (20 mg/kg), cyclic-1a (60 mg/kg) or DOX (5 mg/kg) every 3 days for a total of six times. Tumor volume and body weight were measured every 3 days. Tumor volume was calculated using the formula (c × c × d)/2 (c, the smallest diameter; d, the largest diameter).
Immunohistochemical stains against Ki67 and cleaved caspase 3 were performed using immunohistochemistry kit (KeyGen, Nanjing, China) according to the manufacturer’s instructions. Mouse organs (heart, liver, spleen, lung and kidney) tissues were fixed in 4% paraformaldehyde at 4 °C for 48 h, and then embedded in paraffin wax, sectioned (5 µm) and processed for H&E staining. Inverted fluorescence microscope was used to photograph all sections.

Series [3] has as its system MCF-7/DOX cells. The series can be described thus: MTT assay, MCF-7/DOX cells. The format is cell-based. Conditions: Homo sapiens, MCF7-DOX, mean ± SD, n=3. The procedure: (§1) MTT assay was performed as described previously.^[6^] Briefly, the cells (5 × 10^3 cells/well) were seeded in 96-well culture plates (Coring) and incubated overnight. Then cells were exposed to various concentrations of cyclic-1a and incubated at 37 °C for 72 h. After that, MTT stock solution (0.5 mg/mL) was added into each well and cultured for additional 4 h. The MTT treated cells were […] with 150 μL of DMSO. The absorbance in each individual well was measured by using a microplate spectrophotometer at […] (SpectraMax M2e, Molecular Devices Inc. USA).

Series [4] deals with MCF-7 cells. The class given is cell-based. On the procedure:
as §1

In series [5] the test system is MCF-7 cells. The class given is cell-based. This is another data set of the same source.

Molecules are shown by their SMILES. Bridge positions count the residues as written; N and C are the ends. Square brackets hold non-standard residues; d marks the D form. Peptide text beside a SMILES is read from it. * marks the point of attachment. Acetyl(2-naphthyl) = O=C(Cc1ccc2ccccc2c1)*

In the case of `N=C(N)NCCC[C@H](NC(=O)CNC(=O)CNC(=O)[C@H](CS)NC(=O)[C@@H](CCCCN)NC(=O)[C@@H](Cc1ccc(O)cc1)NC(=O)[C@@H](Cc1ccccc1)NC(=O)[C@@H](Cc1ccccc1)NC(=O)[C@H](CS)NC(=O)Cc1ccc2ccccc2c1)C(=O)N[C@@H](CCCNC(=N)N)C(=O)NCC(=O)N[C@@H](CCCCN)C(=O)NCC(=O)NCC(=O)N[C@@H](Cc1c[nH]cn1)C(=O)N[C@@H](Cc1c[nH]cn1)C(=O)N[C@@H](Cc1c[nH]cn1)C(=O)N[C@@H](CCCNC(=N)N)C(=O)N[C@@H](CCCNC(=N)N)C(=O)NCC(=O)N[C@@H](CC(=O)O)C(=O)N[C@@H](CO)C(=O)O` [linear-1a] ({Acetyl(2-naphthyl)}-C[dF][dF][dY][dK]CGGRRGKGGHHHRRGDS-OH), the “linear-1a converted into linear-1b” value in series [1] is “more than 90%”.

In the case of `COc1cccc2c1C(=O)c1c(O)c3c(c(O)c1C2=O)C[C@@](O)(C(=O)CO)C[C@@H]3O[C@H]1C[C@H](N)[C@H](O)[C@H](C)O1` [doxorubicin, Doxorubicin], the “body weight of mice” value in series [2] (DOX 5 mg/kg, intraperitoneally every 3 days, six times, n=6) was “gradually increased throughout the experiments except for the DOX-treated group”. The “pathological lesions in organs (H&E)” value in series [2] (heart, liver, spleen, lung and kidney, DOX 5 mg/kg intraperitoneally) is “lesions of the heart and kidney were detected”. The compound further displayed an IC50 in series [3] of 83.3 ± 6.13 µM.

In the case of `N=C(N)NCCC[C@H](NC(=O)CNC(=O)CNC(=O)[C@@H]1CSSC[C@H](NC(=O)Cc2ccc3ccccc3c2)C(=O)N[C@H](Cc2ccccc2)C(=O)N[C@H](Cc2ccccc2)C(=O)N[C@H](Cc2ccc(O)cc2)C(=O)N[C@H](CCCCN)C(=O)N1)C(=O)N[C@@H](CCCNC(=N)N)C(=O)NCC(=O)N[C@@H](CCCCN)C(=O)NCC(=O)NCC(=O)N[C@@H](Cc1c[nH]cn1)C(=O)N[C@@H](Cc1c[nH]cn1)C(=O)N[C@@H](Cc1c[nH]cn1)C(=O)N[C@@H](CCCNC(=N)N)C(=O)N[C@@H](CCCNC(=N)N)C(=O)NCC(=O)N[C@@H](CC(=O)O)C(=O)N[C@@H](CO)C(=O)O` [cyclic-1a] ({Acetyl(2-naphthyl)}-C[dF][dF][dY][dK]CGGRRGKGGHHHRRGDS-OH; disulfide 1-6), the “cytotoxicity to MCF-7 cells (MTT)” value in series [4] is listed as “no obvious cytotoxicity”. The “cellular uptake ability, MCF-7 cells” value in series [5] is listed as “strong cellular uptake ability”.
